Data on eleven compounds can be found in patent publication US20110166161A1, “HETEROCYCLIC CARBOXAMIDE COMPOUNDS” (Astellas Pharma Inc., priority 2008, published 2011).

Assay [1] relates to Male Wistar rats. Nature of the assay: Inhibitory effects on phenylephrine-induced elevation of urethral pressure. The format is in vivo. The following applies: Rattus norvegicus, iv; phenylephrine 30 μg/kg i.v.; anesthetized rats; read-out: Inhibition of elevation in urethral pressure ED30. The text has this: To evaluate the usefulness of the compounds of the present invention for urinary dysfunction associated with benign prostatic hyperplasia, we investigated the inhibitory effects of the intravenous administration of the compounds on phenylephrine-induced elevation of the urethral pressure in rats.
Male Wistar rats were anesthetized with urethane (SIGMA, USA). After midline abdominal incision, catheter to measure the urethral pressure (3.5 Fr, Millar, USA) was inserted into the urethra from top of the bladder. After confirming the Phenylephrine (30 μg/kg i.v.)-induced elevation of the urethral pressure, compounds were administered intravenously in increasing doses. Every 5 min after administration of compounds, Phenylephrine (30 μg/kg i.v.) was injected, and the inhibitory effects of compounds on phenylephrine-induced elevation of urethral pressure were evaluated. Each experiment was performed in about 4 animals.

In assay [2] the test system is Male Wistar rats. Nature of the assay: Effects on hindlimb blood flow (laser Doppler). The format is in vivo. The following applies: po; 10 mg/kg p.o.; rat hindlimb; read-out: % of increase of blood flow. The text has this: As one of the study to clarify the usefulness of the compounds of the present invention for peripheral arterial disease, we conducted a study to evaluate the effects of the compounds on hindlimb blood flow in rats.
Male Wistar rats were anesthetized by intraperitoneal pentobarbital injection (Kanto chemical, Japan) after oral administration of compounds. Rats were placed on a heating plate for subsequent hindlimb blood flow analysis. We measured hindlimb blood flow using a laser Doppler blood flow meter (PeriScan System, Stockholm, Sweden). After the laser Doppler images were recorded, the average perfusion values of both limbs were calculated, and evaluated the effects of compounds on hindlimb blood flow. Each experiment was performed in about 4 animals.

The target of assay [3] is human ROCK I (Homo sapiens, UniProt Q13464). In words: ROCK enzyme inhibition assay. The format is biochemical. As to the method:
ROCK enzyme inhibitory activity of the compounds of the present invention has been assayed as follow. An aqueous solution of Rho kinase substrate MYTP was added to 96-well plate. Following incubation for overnight at 4° C., the plate was blocked by using blocking buffer containing BSA. To the plate was added reaction buffer containing each concentration of compound, suitable concentration of human ROCK I (Caruna Biosciences), ATP, β-glycerol phosphate, EGTA, sodium orthovanadate and DTT, and then the plate was incubated for 1 hour. After washing the plate by washing buffer, anti-phosphothreonin antibody was added to the plate, and then the plate was incubated for 1 hour. After washing the plate by washing buffer again, HRP-conjugated anti-phosphorylated protein antibody was added to the plate, and then the plate was incubated for 1 hour. After washing the plate by washing buffer again, colorimetric substrate TMB microwell peroxidase substrate was added to the plate, and then the plate was incubated for appropriate time. After incubation, sulfuric acid was added to the plate to stop the reaction, and then absorbance (450 nm) was measured by using spectromether. Based, on the absorbance for each compound, the data is fit using Prism software to obtain a IC50 value.

Assay [4] relates to Male SD rats. In words: Changes in hindlimb weight distribution after intra-articular monosodium iodoacetate (MIA) injection. The format is in vivo. The following applies: Rattus norvegicus, 504 h; oral administration; MIA-injected rats, three weeks after injection. From the text:
As intra-articular injection of monosodium iodoacetate (MIA) induced human osteoarthritis-like histopathological changes in knee joint, this model would be very useful for the study of human osteoarthritis. Recently, it is reported the clinical scores of the joint pain were closely correlated to the grade of histological findings (J Vet Med Sci 65, 1195, 2003) and this model may be useful for estimation of therapeutic effects of pain with osteoarthritis.
Male SD rats were anesthetized with halothane (Takeda, Japan) and given single intra-articular injection of 1 mg of monosodium iodoacetate (MIA; Sigma, St. Louis, USA) through the infrapatellar ligament of the right knee. MIA was dissolved with physiologic saline and administered in a volume of 50 μl using a 27-gauge, 0.5-inch needle. Three weeks after the injection, hindlimb weight distribution was determined using an incapacitance tester (Linton Instrumentation, Norfork, UK). Rats were allowed to acclimate to the testing apparatus and when stationary, readings were taken over a 5 s period. […] Each group in each experiment was performed in about 8 animals.

The subject of assay [5] is female C57Bl/6 mice. In words: Bleomycin-induced lung fibrosis model, hydroxyproline content of the lung. The format is in vivo, mouse. The following applies: 1 mg/kg orally once a day from day 1 to day 35; lung removed day 36. As to the method:
To induce pulmonary fibrosis, ten mg/kg bleomycin (Nipponkayaku Industries Ltd, Tokyo, Japan) was intraperitoneally injected into female C57Bl/6 mice (9 weeks old, Charles River Laboratories Japan, Inc.) once a day from day 1 to day 10. Bleomycin was dissolved in saline and control mice were intraperitoneally injected with saline. The compound or vehicle was orally administered to the mice once a day from day 1 to day 35. On day 36, mice were sacrificed under anesthesia of pentobarbital and the lung was surgically removed. Hydroxyproline content of the lung was assayed according to the method of Woessner JF (1).

The test system of assay [6] is beagle dogs. Nature of the assay: In vivo eye pressure lowering effect (IOP), beagle dogs. The following applies: beagle dog, 10 mM applied topically. The method, then: (§1) The intraocular pressure (IOP) was determined in beagle dogs and rats with tonometer (TONO-PEN™, MENTOR and TonoLab™, M. E. Technica), specially calibrated for the eye of the particular species. In beagle dogs, the cornea was anesthetized with oxibuprocain before each IOP measurement.

The test system of assay [7] is rats. In words: In vivo eye pressure lowering effect (IOP), rats. The following applies: rat, 10 mM applied topically. The method, then: as §1

SMILES strings stand for the structures. Structures can show the parent of a compound that is named as a salt. Bounds are passed on as bounds.

Usually IC50 stands for the point on the concentration scale where inhibition reaches its midpoint. High values mean a need for much substance, low ones inhibition by little substance. In general, ED50 refers to the midpoint of the dose-response relation.

Chain of human ROCK I (Q13464 whole entry): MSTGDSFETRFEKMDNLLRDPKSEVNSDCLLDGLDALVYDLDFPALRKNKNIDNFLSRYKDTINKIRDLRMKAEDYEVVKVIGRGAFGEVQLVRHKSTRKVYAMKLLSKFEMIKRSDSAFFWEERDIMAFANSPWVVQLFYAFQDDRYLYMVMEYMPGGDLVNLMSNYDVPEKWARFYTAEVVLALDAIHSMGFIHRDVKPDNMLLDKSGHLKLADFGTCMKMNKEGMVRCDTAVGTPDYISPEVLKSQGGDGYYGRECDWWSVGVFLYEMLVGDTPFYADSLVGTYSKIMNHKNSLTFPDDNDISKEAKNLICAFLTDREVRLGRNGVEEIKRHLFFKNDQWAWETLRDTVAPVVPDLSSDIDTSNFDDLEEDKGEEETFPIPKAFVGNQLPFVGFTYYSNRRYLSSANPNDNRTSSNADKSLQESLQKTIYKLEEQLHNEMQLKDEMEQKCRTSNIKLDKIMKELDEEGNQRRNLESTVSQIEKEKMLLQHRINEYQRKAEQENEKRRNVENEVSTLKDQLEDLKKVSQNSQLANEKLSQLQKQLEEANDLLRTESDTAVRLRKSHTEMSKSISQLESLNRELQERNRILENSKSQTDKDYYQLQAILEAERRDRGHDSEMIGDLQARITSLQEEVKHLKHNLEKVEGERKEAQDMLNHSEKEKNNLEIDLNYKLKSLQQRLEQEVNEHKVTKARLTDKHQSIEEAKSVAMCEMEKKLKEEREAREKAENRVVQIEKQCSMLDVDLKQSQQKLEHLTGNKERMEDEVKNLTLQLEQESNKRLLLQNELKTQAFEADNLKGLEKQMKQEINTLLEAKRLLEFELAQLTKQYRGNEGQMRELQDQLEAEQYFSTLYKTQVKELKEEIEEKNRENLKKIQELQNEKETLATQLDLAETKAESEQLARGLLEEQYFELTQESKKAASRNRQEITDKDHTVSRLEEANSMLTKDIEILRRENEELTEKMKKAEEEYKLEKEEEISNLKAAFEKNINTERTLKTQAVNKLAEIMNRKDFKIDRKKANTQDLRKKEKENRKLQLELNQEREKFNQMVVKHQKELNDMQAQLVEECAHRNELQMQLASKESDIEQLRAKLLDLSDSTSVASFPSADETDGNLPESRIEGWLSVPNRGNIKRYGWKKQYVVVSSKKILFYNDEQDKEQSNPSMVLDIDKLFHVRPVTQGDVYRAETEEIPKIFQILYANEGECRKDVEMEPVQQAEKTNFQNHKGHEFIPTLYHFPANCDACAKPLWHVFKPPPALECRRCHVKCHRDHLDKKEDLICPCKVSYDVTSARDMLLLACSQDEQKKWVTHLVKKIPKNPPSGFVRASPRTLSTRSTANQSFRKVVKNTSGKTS

For the compound `COc1nc(N[C@H]2CC[C@H](N)CC2)ccc1C(N)=O` [Example 1, 6-[(trans-4-aminocyclohexyl)amino]-2-methoxynicotinamide dihydrochloride], the ED30 in assay [1] is below 0.5 mg/kg. Further, the change in vivo at 10 mg/kg in assay [2] was above 130%. The midpoint of inhibition in assay [3], the IC50, lay at 2 nM. In assay [4], the ED50 is below 1 mg/kg.

As for `COc1nc(N[C@H]2CC[C@H](N)CC2)c(F)cc1C(N)=O` [Example 2, 6-[(trans-4-aminocyclohexyl)amino]-5-fluoro-2-methoxynicotinamide dihydrochloride], in assay [1], the ED30 is below 0.5 mg/kg. Further, the change in vivo at 10 mg/kg in assay [2] was above 130%. The compound also came in with an IC50 in assay [3] of 2 nM. The same compound came in with an ED50 in assay [4] below 1 mg/kg.

As for `COc1nc(N[C@H]2CC[C@H](N)CC2)c(F)cc1C(N)=O` [Example 3, 6-[(trans-4-aminocyclohexyl)amino]-5-fluoro-2-methoxynicotinamide], the “reduction of hydroxyproline content of the lung” value in assay [5] worked out at 66%. Also, in assay [6], the “IOP change in animals after 4 hours” value is −16% reduced in beagle dog.

As for `COc1nc(N[C@H]2CC[C@H](N)CC2)c(Cl)cc1C(N)=O` [Example 4, 6-[(trans-4-aminocyclohexyl)amino]-5-chloro-2-methoxynicotinamide], in assay [1], the ED30 was below 0.5 mg/kg. Moreover, the change in vivo at 10 mg/kg in assay [2] is above 130%. The IC50 in assay [3] was 5 nM. This compound also came in with an ED50 in assay [4] below 1 mg/kg.

Consider `COc1nc(N[C@H]2CC[C@H](N)CC2)c(Br)cc1C(N)=O` [Example 5, 6-[(trans-4-aminocyclohexyl)amino]-5-bromo-2-methoxynicotinamide], for which the ED30 in assay [1] is below 0.5 mg/kg. In addition, in assay [2], the change in vivo at 10 mg/kg is above 130%. In assay [3], this compound had an IC50 of 39 nM. In assay [4], this compound had an ED50 below 3 mg/kg.

In the case of `CCOc1nc(N[C@H]2CC[C@H](N)CC2)ccc1C(N)=O` [Example 6, 6-[(trans-4-aminocyclohexyl)amino]-2-ethoxynicotinamide dihydrochloride], in assay [1], the ED30 is below 0.5 mg/kg. Besides, in assay [2], the change in vivo at 10 mg/kg was above 130%. In assay [3], this compound displayed a 50% inhibitory concentration (IC50) of 10 nM.

Take `CCOc1nc(N[C@H]2CC[C@H](N)CC2)c(F)cc1C(N)=O` [Example 7, 6-[(trans-4-aminocyclohexyl)amino]-2-ethoxy-5-fluoronicotinamide dihydrochloride]: the ED30 in assay [1] is below 0.5 mg/kg. The change in vivo at 10 mg/kg in assay [2] was above 130%. The IC50 in assay [3] worked out at 9 nM.

`CCOc1nc(N[C@H]2CC[C@H](N)CC2)c(Br)cc1C(N)=O` [Example 9, 6-[(trans-4-aminocyclohexyl)amino]-5-bromo-2-ethoxynicotinamide]: the “IOP change in animals after 4 hours” value in assay [7] is listed as −30% reduced in rat.

In the case of `CCOc1nc(N[C@H]2CC[C@H](N)CC2)c(I)cc1C(N)=O` [Example 10, 6-[(trans-4-aminocyclohexyl)amino]-5-iodo-2-ethoxynicotinamide], the “IOP change in animals after 4 hours” value in assay [7] is listed as −26% reduced in rat.

Consider `COc1nc(N[C@H]2CC[C@H](NS(C)(=O)=O)CC2)c(F)cc1C(N)=O` [Example 28, 6-[(trans-4-methanesulfonylaminocyclohexyl)amino]-5-fluoro-2-methoxynicotinamide], for which the ED30 in assay [1] is below 0.5 mg/kg. In assay [2], the change in vivo at 10 mg/kg was above 130%. This compound also came in with an IC50 in assay [3] of 58 nM.

Turning to `COc1nc(N[C@H]2CC[C@H](NC3CCS(=O)(=O)CC3)CC2)c(F)cc1C(N)=O` [Example 30, 6-({trans-4-[(1,1-dioxidotetrahydro-2H-thiopyran-4-yl)amino]cyclohexyl}amino)-5-fluoro-2-methoxynicotinamide], the ED30 in assay [1] was below 0.5 mg/kg. The change in vivo at 10 mg/kg in assay [2] is above 130%. Also, the IC50 in assay [3] was 7 nM.
